Experimental data as given in patent US20030211183A1, “Skin-improving agent” (Kyowa Hakko Kogyo Co., Ltd., priority 1999, published 2003).

System: Human neonate-derived fibroblasts
Assay: Collagen synthesis-promoting activity on human fibroblasts (3H-glycine incorporation)
Assay type: cell-based
Conditions: 300 μmol/l
Experimental: 201-271, Kodansha Scientific (1986).
Human neonate-derived fibroblasts (Sanko Junyaku Co., Ltd.) were suspended in DMEM containing 10% fetal bovine serum [Virology, 8, 396 (1959)] and cultured at 37° C. in 5% CO2 to the stationary phase. To the resulting culture were added ^3H-labeled glycine and a test substance, followed by further culturing for 72 hours. After 500 μmol/l phenylmethanesulfonyl fluoride (PMSF) was added to the obtained culture, the cells and the medium were collected, followed by disruption with a sonicator to extract proteins. To the extract were added 100 μmol/l bovine serum albumin (BSA) and 10% trichloroacetic acid (TCA), and the resulting mixture was centrifuged at 3000 rpm for 5 minutes to collect the precipitate. […]
After the reaction mixture was separated by ultrafiltration (molecular weight: 10,000), the radioactivity of the protein fraction in the filtrate (CDP) was measured as the amount of newly synthesized collagen. Then, the radioactivity of the protein fraction which was not filtered (NCDP) was measured, and the collagen synthesis ratio was calculated according to equation 2. The relative collagen synthesis-promoting activity (the change in collagen synthesis) was calculated according to equation 3 as the relative value of the collagen synthesis ratio in the presence of a test substance based on the control. […]

SMILES: Oc1cc(O)c2c(c1)O[C@H](c1ccc(O)c(O)c1)[C@H](O)[C@H]2c1c(O)cc(O)c2c1O[C@H](c1ccc(O)c(O)c1)[C@H](O)C2 [PB2, procyanidin B-2 [epicatechin-(4β→8)-epicatechin]]
- Amount of collagen synthesized compared with control (in words): increased
